In patent US20240327417A1, “HETEROCYCLIC COMPOUNDS” (BeiGene Switzerland GmbH, priority 2021, published 2024):
One block for each compound: values may come before it.

Experiments:
[1] = molecular target: T1, Full length DGKζ (in-house protein M1-V929) (Homo sapiens, UniProt Q13574); experiment: Biochemical DGK IC50 assay (ADP-Glo, lipid micelle substrate), DGKζ; settings: 0.5 nM enzyme, 140 μM ATP, 80 μM DAG, 1 hour preincubation, 1 hour reaction, room temperature, read-out: IC50s for DGKζ
T1 construct: His (N); TEV cleavage site (N); made in house; host or cells: Sf9 insect cells (baculovirus, Bac-to-Bac)
T1 sequence (Q13574 1-929 isoform Q13574-4): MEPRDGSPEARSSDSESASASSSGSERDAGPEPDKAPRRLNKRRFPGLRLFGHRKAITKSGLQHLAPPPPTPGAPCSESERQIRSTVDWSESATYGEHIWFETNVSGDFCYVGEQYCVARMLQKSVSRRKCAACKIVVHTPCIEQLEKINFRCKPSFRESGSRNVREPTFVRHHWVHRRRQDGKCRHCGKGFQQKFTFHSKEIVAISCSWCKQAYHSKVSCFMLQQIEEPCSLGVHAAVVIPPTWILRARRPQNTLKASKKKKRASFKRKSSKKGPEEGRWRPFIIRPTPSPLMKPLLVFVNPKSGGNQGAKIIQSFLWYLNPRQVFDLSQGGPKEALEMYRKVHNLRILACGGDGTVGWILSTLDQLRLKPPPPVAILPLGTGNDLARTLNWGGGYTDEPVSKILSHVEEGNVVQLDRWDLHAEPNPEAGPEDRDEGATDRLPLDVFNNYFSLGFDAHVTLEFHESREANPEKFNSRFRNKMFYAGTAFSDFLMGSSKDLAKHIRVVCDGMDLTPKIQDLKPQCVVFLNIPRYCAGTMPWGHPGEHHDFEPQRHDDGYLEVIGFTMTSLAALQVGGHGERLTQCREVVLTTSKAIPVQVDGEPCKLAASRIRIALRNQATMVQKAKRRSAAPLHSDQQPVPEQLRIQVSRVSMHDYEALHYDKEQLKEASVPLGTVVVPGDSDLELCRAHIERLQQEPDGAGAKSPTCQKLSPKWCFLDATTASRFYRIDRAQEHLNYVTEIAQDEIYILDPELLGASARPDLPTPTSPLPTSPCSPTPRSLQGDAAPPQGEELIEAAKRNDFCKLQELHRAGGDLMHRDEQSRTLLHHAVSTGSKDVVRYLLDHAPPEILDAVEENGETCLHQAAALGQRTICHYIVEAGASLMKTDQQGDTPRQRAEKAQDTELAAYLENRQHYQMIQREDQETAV
Protocol: (§1) Enzymatic reactions of DGKζ, DGKα and DGKδ were performed using ADP-Glo assay with lipid micelle substrate. […] Full length DGKα (D21-10BG, SignalChem) and full length DGKδ (D23-10G, SignalChem) were purchased. Lipid micelle was prepared by dissolving DAG (Sigma, 317505-10MG) and PS (Sigma, P7769-100MG) with chloroform which was firtherly removed by rotary evaporation. The obtained residue was resuspended in buffer containing 25 mM HEPES pH 7.0, 0.5 mM EDTA and 160 mM Octyl β-D glucopyranoside by vigorous mixing and ultrasonic (IID, Scientz).
(§2) The inhibition activities testing for the compound disclosed herein were carried out at room temperature in assay buffer containing 50 mM HEPES, 10 mM MgCl2, 0.01% BSA, 0.1 mM Na3VO4, 0.005% Tween-20 and 0.01 mM CaCl2. Compounds in DMSO were dispensed into wells of a black 384 well plate (Corning 4514) using D300e digital dispenser (Tecan). The ranges of compounds final concentration were 1.55˜10000 nM or 23.3˜150000 nM. 3 μL 2× enzyme solution was added to wells. […] After 1 hour reaction, 5 μL ADP-Glo reagent (Promga V9101) was added and incubated for 40 minutes. 10 μL Kinase Detection reagent was added and incubated for 30 minutes. Luminescence was measured on a microplate reader (PHERAstar FSX, BMG labtech). The IC50s are calculated based on inhibition of enzyme activity in the presence of increasing concentrations of compounds.
Human His-TEV-DGK-zeta-pFastBac1 and human baculovirus samples was generated using the Bac-to-Bac baculovirus expression system (Invitrogen) according to the manufacturer's protocol. The DNA used for expression of DGK-zeta, have SEQ ID Nos: 1. Baculovirus amplification was achieved using infected SF9 cells at 1:2000 virus/cells ratios, and grown for 96 hours at 27° C. post-transfected.
The expression scaled up for each protein was carried out in the […] from CORNING. 4 L of 3×10^6 cells/mL Sf9 cells (Expression System, Invitrogen) grown in SF900™ II SFM insect medium (Expression System) was infected with virus stock at 1:200 virus/cells ratio, and grown for 48 hours at 27° C. post-transfection. The infected cell culture was harvested by centrifugation at 6000 rpm for 15 min 4° C. in a SORVALL LYNX6000 centrifuge. The cell pellets were stored at −80° C.
Full length human DGKζ produced as described above, was purified from Sf9 baculovirus-infected insect cell paste. The cells were lysed using sonication method, and the lysates were clarified by centrifugation.

[2] = molecular target: T2, Full length DGKα (D21-10BG, SignalChem) (Homo sapiens, UniProt P23743); experiment: Biochemical DGK IC50 assay (ADP-Glo, lipid micelle substrate), DGKα; settings: 7.5 nM enzyme, 140 μM ATP, 80 μM DAG, 1 hour preincubation, 1 hour reaction, room temperature, read-out: IC50s for DGKα
T2 construct: Full length DGKα (D21-10BG, SignalChem); purchased SignalChem D21-10BG
T2 sequence (P23743 whole entry): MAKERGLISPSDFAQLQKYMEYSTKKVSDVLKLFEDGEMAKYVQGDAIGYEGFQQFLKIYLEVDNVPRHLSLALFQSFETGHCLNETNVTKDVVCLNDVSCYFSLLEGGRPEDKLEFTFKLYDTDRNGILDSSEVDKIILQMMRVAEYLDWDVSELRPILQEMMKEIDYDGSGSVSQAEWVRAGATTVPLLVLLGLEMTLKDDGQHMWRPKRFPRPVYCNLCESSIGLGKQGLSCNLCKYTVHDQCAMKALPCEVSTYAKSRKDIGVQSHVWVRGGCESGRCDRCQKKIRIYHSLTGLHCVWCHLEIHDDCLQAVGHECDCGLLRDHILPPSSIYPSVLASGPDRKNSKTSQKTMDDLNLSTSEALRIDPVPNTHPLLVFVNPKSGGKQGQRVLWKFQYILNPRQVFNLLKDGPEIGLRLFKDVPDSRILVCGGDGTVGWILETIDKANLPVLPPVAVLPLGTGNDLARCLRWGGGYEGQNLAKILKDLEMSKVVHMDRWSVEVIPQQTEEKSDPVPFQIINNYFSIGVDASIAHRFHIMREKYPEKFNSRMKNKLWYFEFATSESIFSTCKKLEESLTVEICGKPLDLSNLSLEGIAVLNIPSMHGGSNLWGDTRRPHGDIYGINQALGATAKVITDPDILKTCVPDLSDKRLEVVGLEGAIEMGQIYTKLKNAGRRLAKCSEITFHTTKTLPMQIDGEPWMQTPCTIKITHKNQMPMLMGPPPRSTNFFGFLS
Protocol: as §1, §2

- IC50 [1]: 11000 nM
- IC50 [2]: 22000 nM
Structure (SMILES): COC(C)c1cn2c(n1)c(N1C[C@@H](C)N(C(C)c3ccc4nccnc4c3)C[C@@H]1C)cc(=O)n2C (stereo partly drawn) [Compound A5, 8-((2S,5R)-2,5-dimethyl-4-(1-(quinoxalin-6-yl)ethyl)piperazin-1-yl)-2-(1-methoxyethyl)-5-methylimidazo[1,2-b]pyridazin-6(5H)-one]

- IC50 [1]: 108 nM
- IC50 [2]: 789 nM
Structure (SMILES): CC[C@@H]1CN(c2cc(=O)n(C)n3cc(CC#N)nc23)[C@@H](C)CN1C(C)c1ccc2nc(C)sc2c1 (stereo partly drawn) [Compound A55, 2-(8-((2S,5R)-5-ethyl-2-methyl-4-(1-(2-methylbenzo[d]thiazol-6-yl)ethyl)piperazin-1-yl)-5-methyl-6-oxo-5,6-dihydroimidazo[1,2-b]pyridazin-2-yl)acetonitrile]

- IC50 [1]: 39 nM
- IC50 [2]: 2280 nM
Structure (SMILES): Cc1cnc2ccc(C(C)N3C[C@H](C)N(c4c(C#N)c(=O)n(C)n5cc(CC#N)nc45)C[C@H]3C)cc2n1 (stereo partly drawn) [Compound A23, 2-(cyanomethyl)-8-((2S,5R)-2,5-dimethyl-4-(1-(3-methylquinoxalin-6-yl)ethyl)piperazin-1-yl)-5-methyl-6-oxo-5,6-dihydroimidazo[1,2-b]pyridazine-7-carbonitrile]

- IC50 [1]: 480 nM
- IC50 [2]: 4000 nM
Structure (SMILES): COCc1cn2c(n1)c(N1C[C@@H](C)N(C(C)c3ccc4nccnc4c3)C[C@@H]1C)cc(=O)n2C (stereo partly drawn) [Compound A4, 8-((2S,5R)-2,5-dimethyl-4-(1-(quinoxalin-6-yl)ethyl)piperazin-1-yl)-2-(methoxymethyl)-5-methylimidazo[1,2-b]pyridazin-6(5H)-one]

- IC50 [1]: 35 nM
- IC50 [2]: 1270 nM
Structure (SMILES): CC(c1ccc2nccnc2c1)N1C[C@H](C)N(c2cc(=O)n(C)n3cc(CC#N)nc23)C[C@H]1C (single isomer, unassigned) [Compound A1a]

- IC50 [1]: 1460 nM
- IC50 [2]: 2050 nM
Structure (SMILES): CC[C@H]1CN(C(C)c2ccc3nc(C)sc3c2F)[C@H](C)CN1c1cc(=O)n(C)n2cc(CC#N)nc12 (single isomer, unassigned) [Compound A119a]

- IC50 [1]: 7400 nM
- IC50 [2]: 26800 nM
Structure (SMILES): Cc1cnc2ccc(C(C)N3C[C@H](C)N(c4cc(=O)n(C)n5cc(CC#N)nc45)C[C@H]3C)cc2n1 (single isomer, unassigned) [Compound A2a]

- IC50 [1]: 9000 nM
- IC50 [2]: 2300 nM
Structure (SMILES): CC(c1ccc2nccnc2c1)N1C[C@H](C)N(c2cc(=O)n(C)n3cc(CO)nc23)C[C@H]1C (stereo partly drawn) [Compound A3, 8-((2S,5R)-2,5-dimethyl-4-(1-(quinoxalin-6-yl)ethyl)piperazin-1-yl)-2-(hydroxymethyl)-5-methylimidazo[1,2-b]pyridazin-6(5H)-one]

- IC50 [1]: 96 nM
- IC50 [2]: 26 nM
Structure (SMILES): CC[C@@H]1CN(c2cc(=O)n(C)n3cc(CC#N)nc23)[C@@H](C)CN1C(C)c1ccc2cc(F)sc2n1 (stereo partly drawn) [Compound A106, 2-(8-((2S,5R)-5-ethyl-4-(1-(2-fluorothieno[2,3-b]pyridin-6-yl)ethyl)-2-methylpiperazin-1-yl)-5-methyl-6-oxo-5,6-dihydroimidazo[1,2-b]pyridazin-2-yl)acetonitrile]

The remaining lines, values behind:

Structure (SMILES): CC[C@H]1CN(C(C)c2ccc(C(C)(C)F)nc2)[C@H](CC)CN1c1cc(=O)n(C)n2cc(CC#N)nc12 (single isomer, unassigned) [Compound A46a]
- IC50 [1]: 6.4 nM
- IC50 [2]: 122 nM

Structure (SMILES): CC[C@H]1CN(C(C)c2ccc(OC(C)C)nc2)[C@H](CC)CN1c1cc(=O)n(C)n2cc(CC#N)nc12 (single isomer, unassigned) [Compound A45b]
- IC50 [1]: 1060 nM
- IC50 [2]: 835 nM

Structure (SMILES): CC#CCc1cn2c(n1)c(N1C[C@@H](CC)N(C(C)c3ccc4nc(C)sc4c3)C[C@@H]1CC)cc(=O)n2C (single isomer, unassigned) [Compound A68b]
- IC50 [1]: > 10000 nM
- IC50 [2]: 527 nM

Structure (SMILES): CC[C@H]1CN(C(C)c2ccc(C3(F)CC3)cc2)[C@H](CC)CN1c1cc(=O)n(C)n2cc(CC#N)nc12 (stereo partly drawn) [Compound A88, 2-(8-((2S,5R)-2,5-diethyl-4-(1-(4-(1-fluorocyclopropyl)phenyl)ethyl)piperazin-1-yl)-5-methyl-6-oxo-5,6-dihydroimidazo[1,2-b]pyridazin-2-yl)acetonitrile]
- IC50 [1]: 39 nM
- IC50 [2]: 72 nM

Structure (SMILES): CC#CCc1cn2c(n1)c(N1C[C@@H](CC)N(C(C)c3ccc4nc(C)sc4c3)C[C@@H]1CC)cc(=O)n2C (single isomer, unassigned) [Compound A68a]
- IC50 [1]: 104 nM
- IC50 [2]: 26 nM

Structure (SMILES): CCc1nc2ccc(C(C)N3C[C@H](CC)N(c4cc(=O)n(C)n5cc(CC#N)nc45)C[C@H]3CC)cc2s1 (single isomer, unassigned) [Compound A100b]
- IC50 [1]: 911 nM
- IC50 [2]: 1060 nM

Structure (SMILES): CC[C@H]1CN(C(C)c2ccc(C3CC3)nc2F)[C@H](CC)CN1c1cc(=O)n(C)n2cc(CC#N)nc12 (single isomer, unassigned) [Compound A42a]
- IC50 [1]: 57 nM
- IC50 [2]: 339 nM

Structure (SMILES): CC[C@@H]1CN(c2c(C#N)c(=O)n(C)n3cc(CC#N)nc23)[C@@H](C)CN1C(C)c1ccc2nc(C)sc2n1 (single isomer, unassigned) [Compound A113a]
- IC50 [1]: 118 nM
- IC50 [2]: 185 nM

Structure (SMILES): CC(c1ccc2c(c1)OC(C)(C)CO2)N1C[C@H](C)N(c2c(C#N)c(=O)n(C)n3cc(CC#N)nc23)C[C@H]1C (single isomer, unassigned) [Compound A27b]
- IC50 [1]: 579 nM
- IC50 [2]: 486 nM

Structure (SMILES): CC[C@@H]1CN(c2c(C#N)c(=O)n(C)n3cc(CC#N)nc23)[C@@H](C)CN1C(C)c1ccc(C2CC2)nc1 (single isomer, unassigned) [Compound A74a]
- IC50 [1]: 166 nM
- IC50 [2]: 682 nM

Structure (SMILES): CC[C@H]1CN(C(C)c2ccc3nc(C)sc3n2)[C@H](CC)CN1c1cc(=O)n(C)n2cc(CC#N)nc12 (single isomer, unassigned) [Compound A58a]
- IC50 [1]: 2160 nM
- IC50 [2]: 1220 nM

Structure (SMILES): CC[C@@H]1CN(c2cc(=O)n(C)n3cc(C=NOC)nc23)[C@@H](C)CN1C(C)c1ccc2nccnc2c1 (single isomer, unassigned) [Compound A9a]
- IC50 [1]: 3150 nM
- IC50 [2]: 739 nM

Structure (SMILES): CC[C@H]1CN(C(C)c2ccc3nc(C)sc3c2)[C@H](CC)CN1c1cc(=O)n(C)n2cc(C=NOC)nc12 (single isomer, unassigned) [Compound A123d]
- IC50 [1]: > 10000 nM
- IC50 [2]: 749 nM

Structure (SMILES): CC[C@H]1CN(C(C)c2ccc(C(C)(F)F)nc2)[C@H](CC)CN1c1cc(=O)n(C)n2cc(CC#N)nc12 (single isomer, unassigned) [Compound A90b]
- IC50 [1]: 802 nM
- IC50 [2]: 386 nM

Structure (SMILES): CC[C@H]1CN(C(C)c2ccc3nc(C)sc3n2)[C@H](CC)CN1c1c(F)c(=O)n(C)n2cc(CC#N)nc12 (single isomer, unassigned) [Compound A82b]
- IC50 [1]: 1050 nM
- IC50 [2]: 233 nM

Structure (SMILES): CC(c1ccc2c(c1)OC(C)(C)CO2)N1C[C@H](C)N(c2c(F)c(=O)n(C)n3cc(CC#N)nc23)C[C@H]1C (single isomer, unassigned) [Compound A26b]
- IC50 [1]: 2140 nM
- IC50 [2]: 2110 nM

Structure (SMILES): CC[C@H]1CN(C(C)c2ccc3ncsc3n2)[C@H](CC)CN1c1cc(=O)n(C)n2cc(CC#N)nc12 (single isomer, unassigned) [Compound A57a]
- IC50 [1]: 6.8 nM
- IC50 [2]: 7.9 nM

Structure (SMILES): CC[C@H]1CN(C(C)c2ccc3ncsc3n2)[C@H](CC)CN1c1cc(=O)n(C)n2cc(CC#N)nc12 (single isomer, unassigned) [Compound A57b]
- IC50 [1]: 357 nM
- IC50 [2]: 172 nM

Structure (SMILES): CC[C@H]1CN(C(C)c2cc3scnc3cc2F)[C@H](CC)CN1c1cc(=O)n(C)n2cc(CC#N)nc12 (single isomer, unassigned) [Compound A59b]
- IC50 [1]: 2610 nM
- IC50 [2]: 1580 nM

Structure (SMILES): CC[C@H]1CN(C(C)c2ccc(C3CC3)cn2)[C@H](CC)CN1c1cc(=O)n(C)n2cc(CC#N)nc12 (stereo partly drawn) [Compound A52, 2-(8-((2S,5R)-4-(1-(5-cyclopropylpyridin-2-yl)ethyl)-2,5-diethylpiperazin-1-yl)-5-methyl-6-oxo-5,6-dihydroimidazo[1,2-b]pyridazin-2-yl)acetonitrile]
- IC50 [1]: 75 nM
- IC50 [2]: 18 nM
